In patent publication US20200253929A1, “TREATMENT OF EPILEPSY” (priority 2017, published 2020):

How the values were obtained:
HEPG2 cells = assay: Cell viability MTT assay, HEPG2 cells; format: cell-based, human; conditions: 24 h incubation; for IC50: read-out: Cytotoxicity HEPG2 cells IC50
Experimental: Protocol was based on literature [Patel and Patel. (2011) J. App. Pharm. Sci 1, 167-171]. Three cell lines were used: a) Hep G2 (HB-8065), a well-differentiated human hepatocellular carcinoma cell line, b) THLE-2, human liver epithelial cells transformed with SV40 large T-antigen and c) SHSYSY, a thrice-cloned sub-line of a human metastatic bone tumor. Cells were seeded at a concentration of 1×10^4 cells/well in 200 μL culture medium and incubated at 37° C. in 5% CO2 using 96-well plates for 24 h. Next, the medium was replaced with medium complemented with test compounds. After another 24 h incubation, the medium was replaced by 100 μL of a MTT (3-(4,5-dimethylthiazol-2-yl)-2,5-diphenyltetrazolium bromide) solution (5 mg/mL in PBS and diluted at 0.5 mg/mL in MEM without phenol red). The plates were gently shaken and incubated for 3 hours at 37° C. in a 5% CO2 incubator. The supernatant was removed and 100 μL of 100% DMSO was added. The plates were gently shaken to solubilize the formed formazan. The absorbance was measured using a multireader (Victor2 (Wallac)) at a wavelength of 570 nm.

CYP2D6 = biological target: T1, CYP2D6 (Homo sapiens, UniProt P10635); assay: CYP450 enzyme inhibition assay, CYP2D6; format: in vitro ADME; conditions: human liver microsomes; for IC50: dextromethorphan probe
T1 construct: containing Human Liver Microsomes (HLM) (0.5 mg/mL); from tissue; host or cells: human liver microsomes
T1 sequence (P10635 whole entry): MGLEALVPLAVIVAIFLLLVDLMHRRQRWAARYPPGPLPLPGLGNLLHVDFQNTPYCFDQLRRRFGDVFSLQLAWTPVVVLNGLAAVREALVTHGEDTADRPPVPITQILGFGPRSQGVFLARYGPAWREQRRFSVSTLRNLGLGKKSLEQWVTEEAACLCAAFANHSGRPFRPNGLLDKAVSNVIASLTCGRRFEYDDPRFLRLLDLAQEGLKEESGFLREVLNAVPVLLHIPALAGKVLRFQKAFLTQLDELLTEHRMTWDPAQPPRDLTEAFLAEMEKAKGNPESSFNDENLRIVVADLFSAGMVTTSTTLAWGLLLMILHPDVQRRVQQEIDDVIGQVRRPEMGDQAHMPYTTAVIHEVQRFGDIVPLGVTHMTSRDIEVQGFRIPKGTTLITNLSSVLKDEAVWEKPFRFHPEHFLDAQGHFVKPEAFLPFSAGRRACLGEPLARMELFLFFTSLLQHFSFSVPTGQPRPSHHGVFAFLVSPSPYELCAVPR
Experimental: (§1) Protocol was based on literature [Perez-Del Palacio et al. (2017) Front Pharmacol 8, 202]. Assessment of CYP450 inhibition was conducted in 96-well plate format at 37° C. Test compounds were dissolved in DMSO/acetonitrile (2 μL) and diluted in 98 μL NADPH solution (2 mM). Reactions were started by addition of 100 μL potassium phosphate buffer (200 mM, pH 7.4) containing Human Liver Microsomes (HLM) (0.5 mg/mL). Probe reactions for CYP3A4, CYP2D6 and CYP2C9 were conducted with 50 μM testosterone, 22 μM dextromethorphan and 10 μM diclofenac for 15 min. Reactions were terminated with the addition of a quench solution (90 μL) of acetonitrile containing internal standards for LC-MS/MS determination (60 ppb cortisone, 100 ppb 4′-hydroxydiclofenac 13C6, 60 ppb levallorphan).

hERG channel = biological target: T2, hERG channel (Homo sapiens, UniProt Q12809); assay: Cardiotoxicity fluorescence-based assay, hERG channel; format: cell-based; conditions: HEK293 cells
T2 construct: expressed in transfected cells; host or cells: HEK293
T2 sequence (Q12809 whole entry): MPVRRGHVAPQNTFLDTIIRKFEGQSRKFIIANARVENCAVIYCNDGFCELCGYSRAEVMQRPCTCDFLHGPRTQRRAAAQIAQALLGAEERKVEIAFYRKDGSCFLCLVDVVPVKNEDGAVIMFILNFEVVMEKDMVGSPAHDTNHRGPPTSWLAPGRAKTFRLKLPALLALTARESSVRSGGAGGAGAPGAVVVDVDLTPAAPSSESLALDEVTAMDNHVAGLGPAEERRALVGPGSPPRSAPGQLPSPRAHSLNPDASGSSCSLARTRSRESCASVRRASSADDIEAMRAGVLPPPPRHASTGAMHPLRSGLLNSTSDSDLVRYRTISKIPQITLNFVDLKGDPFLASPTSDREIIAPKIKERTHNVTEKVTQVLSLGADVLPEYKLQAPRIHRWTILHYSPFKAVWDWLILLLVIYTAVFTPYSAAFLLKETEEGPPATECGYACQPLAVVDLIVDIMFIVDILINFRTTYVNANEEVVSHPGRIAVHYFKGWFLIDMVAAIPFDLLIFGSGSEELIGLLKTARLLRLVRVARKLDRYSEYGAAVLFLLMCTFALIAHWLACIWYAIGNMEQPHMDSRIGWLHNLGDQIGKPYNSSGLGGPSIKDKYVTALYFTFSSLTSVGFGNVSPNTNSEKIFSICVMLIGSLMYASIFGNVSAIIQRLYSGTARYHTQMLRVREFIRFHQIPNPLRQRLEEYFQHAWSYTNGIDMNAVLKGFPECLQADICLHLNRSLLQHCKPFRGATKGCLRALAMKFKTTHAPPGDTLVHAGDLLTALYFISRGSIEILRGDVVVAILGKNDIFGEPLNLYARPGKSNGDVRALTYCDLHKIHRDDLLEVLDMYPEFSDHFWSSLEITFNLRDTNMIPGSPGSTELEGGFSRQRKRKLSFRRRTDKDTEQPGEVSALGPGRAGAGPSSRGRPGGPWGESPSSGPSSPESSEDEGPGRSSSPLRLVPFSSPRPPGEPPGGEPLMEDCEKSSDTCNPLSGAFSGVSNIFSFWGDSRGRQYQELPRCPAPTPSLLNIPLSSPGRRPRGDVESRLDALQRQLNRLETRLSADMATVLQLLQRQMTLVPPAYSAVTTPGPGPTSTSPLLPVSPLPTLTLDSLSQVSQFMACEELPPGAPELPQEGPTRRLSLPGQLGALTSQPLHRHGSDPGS
Experimental: Fluorescence-based assays were performed using HEK293 cell lines that stably express the Nav1.5-channel, Cav1.2-channel or hERG K+-channel, using FMP Red Dye (Molecular Devices), calcium-sensitive fluorescent dye Fluo-4 (Invitrogen) and FIuxOR™ reagent (Invitrogen), respectively, and a FLIPR Tetra High-Throughput Cellular Screening System (Molecular Devices), according to manufacturer's protocols (Molecular Devices). Tetrodotoxin (TTX), israpidine and nicarpidine, and astemizole and haloperidol were used as standard sodium channel, calcium channel, and hERG channel blockers. Data were analyzed using Genedata Screener.

CYP2C9 = biological target: T3, CYP2C9 (Homo sapiens, UniProt P11712); assay: CYP450 enzyme inhibition assay, CYP2C9; format: in vitro ADME; conditions: human liver microsomes; for IC50: diclofenac probe
T3 construct: containing Human Liver Microsomes (HLM) (0.5 mg/mL); from tissue; host or cells: human liver microsomes
T3 sequence (P11712 whole entry): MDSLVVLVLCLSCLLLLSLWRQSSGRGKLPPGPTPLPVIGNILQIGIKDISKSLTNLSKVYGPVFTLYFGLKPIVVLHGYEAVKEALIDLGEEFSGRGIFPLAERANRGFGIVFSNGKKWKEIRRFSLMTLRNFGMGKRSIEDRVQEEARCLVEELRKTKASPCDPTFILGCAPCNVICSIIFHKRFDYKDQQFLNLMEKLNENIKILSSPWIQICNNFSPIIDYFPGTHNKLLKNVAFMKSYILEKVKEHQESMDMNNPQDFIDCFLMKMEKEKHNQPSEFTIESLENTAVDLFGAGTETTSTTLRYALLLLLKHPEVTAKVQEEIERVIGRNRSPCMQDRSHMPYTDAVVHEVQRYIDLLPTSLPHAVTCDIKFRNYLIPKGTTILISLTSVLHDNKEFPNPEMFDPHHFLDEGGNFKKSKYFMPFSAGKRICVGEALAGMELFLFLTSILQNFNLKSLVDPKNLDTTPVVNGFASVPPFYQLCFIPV
Experimental: as §1

NMRI mice = assay: Mouse 6-Hz (44 mA) psychomotor seizure model; format: in vivo; conditions: for mean seizure duration / mice protected against induced seizures: 30 min before electrical stimulation
Description: Although the zebrafish model has a high degree of genetic, physiological and pharmacological conservation^13, it is more distinct from humans than mammals. Therefore, we were interested to see if the observed antiseizure properties of azaspirofuran A and pseurotin A2 would translate to a rodent model. The mouse 6-Hz (44 mA) psychomotor seizure model was chosen, because it can detect compounds with novel antiseizure mechanisms and with potential against drug-resistant seizures [Barton et al. (2001) Epilepsy Res 47, 217-227; Wilcox et al. (2013) Epilepsia 54 S4, 24-34]. In this model drug-resistant focal impaired awareness seizures [Fisher et al. (2017) Epilepsia 58, 531-542], previously referred to as complex partial or psychomotor seizures [Holcomb and Dean (2011) Psychomotor Seizures, In Encyclopedia of Child Behavior and Development (Goldstein, S., and Naglieri, J. A., Eds.), pp 1191-1192, Springer US, Boston, Mass.], are induced by low frequency, long duration corneal electrical stimulation (6 Hz, 0.2 ms rectangular pulse width, 3 s duration, 44 mA) and are characterized by stun, twitching of the vibrissae, forelimb clonus, and Straub tail. […] Stimulated mice with a seizure duration shorter than 27 seconds were thus considered to be protected. […] Besides, this study provides another example of the translation of results from zebrafish to rodent seizure models.
Experimental procedure was described in Copmans et al. (2018) Neurochem. Int. 112, 124-133. before Buenafe et al. cited above; Orellana-Paucar cited above. In brief, NMRI mice (average weight 28 g, range 23-32 g) were randomly divided into control and treatment groups (n=5-10). 50 μL (injection volume was adjusted to the individual weight) of VHC (PEG200:DMSO:water; 0.25:0.25:0.5) or treatment (an ASD or test compound dissolved in VHC) was i.p. injected in mice and after 30 or 120 (in case of phenytoin, as reported by Barton et al. cited above) min psychomotor seizures were induced by low frequency, long duration corneal electrical stimulation (6 Hz, 0.2 ms rectangular pulse width, 3 s duration, 44 mA) using an ECT Unit 5780 (Ugo Basile, Comerio, Italy). Mice were manually restrained and a drop of ocular anesthetic (0.5% lidocaine) was applied to the corneas before stimulation. Following electrical current stimulation, the mouse was released in a transparent cage for behavioral observation, which was video-recorded. […] In addition, facial and mouth jerking as well as head nodding were observed occasionally. Mice displaying normal exploratory and locomotion behavior within a time period of 26 seconds were considered to be protected against the induced psychomotor seizures. Seizure durations were measured during the experiment by experienced researchers, familiar with the different seizure behaviors. In addition, seizure durations were determined by blinded video analysis to confirm or correct the initial observations. Data are expressed as mean±SD.

Compound	Cytotoxicity HEPG2 cells, effect (HEPG2 cells)	IC50 (HEPG2 cells) [µM]	CYP2D6, effect (CYP2D6)	IC50 (CYP2D6) [µM]	Cardiotoxicity hERG channel, effect (hERG channel)	IC50 (hERG channel) [µM]	CYP2C9, effect (CYP2C9)	IC50 (CYP2C9) [µM]	antiseizure activity (NMRI mice; 2.5 mg/kg i.p.)	mean seizure duration (NMRI mice; 10 mg/kg i.p.) [s]	mice protected against induced seizures (NMRI mice; 10 mg/kg i.p.)	mean seizure duration (NMRI mice; 40 mg/kg i.p.) [s]	mice protected against induced seizures (NMRI mice; 40 mg/kg i.p.)	antiseizure activity (NMRI mice; 20 and 10 mg/kg i.p.)
CC/C=C\[C@H](O)[C@H](O)C1=C(C)C(=O)[C@]2(O1)C(=O)N[C@](OC)(C(=O)c1ccccc1)[C@H]2O [pseurotin A2]	No effect	> 50	No effect	> 88	No effect	> 50	No effect	> 88	inactive	27	5 out of 6	26	4 out of 7	
CCc1ccc(C2=C(C)C(=O)C3(O2)C(=O)NC(OC)(C(=O)c2ccccc2)C3O)o1 (stereo not drawn) [azaspirofuran A]	No effect	> 50	Weak	23.4	No effect	> 50	Weak	47.3				24	5 out of 7	no significant effects
